Data from patent EP4722201A1, “3-PHENYLISOXAZOLINE-5-CARBOXAMIDE COMPOUND, AND PREPARATION METHOD THEREFOR, HERBICIDAL COMPOSITION THEREOF AND USE THEREOF” (Jiangsu Flag Chemical Industry Co., Ltd, priority 2023, dated 2024).

Experiments:
Assay in all cases: Indoor herbicide activity determination, Seed Treatment; pre-emergence (soil spray)
Format in all cases: in vivo
Lolium multiflorum = tested on: Lolium multiflorum
Method in brief: (§1)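 Herbicide was applied to soil before weed emergence, 24 h after sowing, by tower spraying. Plants grew at constant temperature with illumination, and fresh weight compared with untreated pots gave % inhibition after 21 days.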

Aegilops tauschii = conditions: read-out: Herbicidal activities (inhibition rate) Aegilops tauschii; for inhibition at 60 g/ha: 60 g a.i./ha
Method in brief: as §1

Digitaria sanguinalis = conditions: read-out: Herbicidal activities (inhibition rate) Digitaria sanguinalis; for inhibition at 60 g/ha: 60 g a.i./ha
Method in brief: as §1

Alopecurus myosuroides = tested on: Alopecurus myosuroides
Method in brief: as §1

Eleusine indica = conditions: Dosage 120 g a.i./ha
Method in brief: as §1

Alopecurus japonicus = tested on: Alopecurus japonicus
Method in brief: as §1

Leptochloa chinensis = tested on: Leptochloa chinensis
Method in brief: as §1

Eclipta prostrata = conditions: 60 g a.i./ha, read-out: Herbicidal activities (inhibition rate) Eclipta prostrata
Method in brief: as §1

Cyperus iria = conditions: 60 g a.i./ha, read-out: Herbicidal activities (inhibition rate) Cyperus iria
Method in brief: as §1

Row | Compound | Herbicidal activities, Lolium multiflorum (inhibition rate class) (Lolium multiflorum; Dosage 120 g a.i./ha) | inhibition at 60 g/ha (Aegilops tauschii) | inhibition at 60 g/ha (Digitaria sanguinalis) | Herbicidal activities, Alopecurus myosuroides (inhibition rate class) (Alopecurus myosuroides; Dosage 120 g a.i./ha) | Herbicidal activities, Eleusine indica (inhibition rate class) (Eleusine indica) | Herbicidal activities, Alopecurus japonicus (inhibition rate class) (Alopecurus japonicus; Dosage 120 g a.i./ha) | Herbicidal activities, Leptochloa chinensis (inhibition rate class) (Leptochloa chinensis; Dosage 120 g a.i./ha) | Herbicidal activities, Lolium multiflorum (inhibition rate class) (Lolium multiflorum; Dosage 240 g a.i./ha) | inhibition at 120 g/ha (Aegilops tauschii; 120 g a.i./ha) | inhibition at 120 g/ha (Digitaria sanguinalis; 120 g a.i./ha) | Herbicidal activities, Alopecurus myosuroides (inhibition rate class) (Alopecurus myosuroides; Dosage 240 g a.i./ha) | Herbicidal activities, Alopecurus japonicus (inhibition rate class) (Alopecurus japonicus; Dosage 240 g a.i./ha) | Herbicidal activities, Leptochloa chinensis (inhibition rate class) (Leptochloa chinensis; Dosage 240 g a.i./ha) | inhibition at 60 g/ha (Eclipta prostrata) | inhibition at 60 g/ha (Cyperus iria) | Herbicidal activity (inhibition rate class), Lolium multiflorum (Lolium multiflorum; Dosage 120 g a.i./ha) | Herbicidal activity (inhibition rate class), Alopecurus myosuroides (Alopecurus myosuroides; Dosage 120 g a.i./ha) | Herbicidal activity (inhibition rate class), Eleusine indica (Eleusine indica) | Herbicidal activity (inhibition rate class), Alopecurus japonicus (Alopecurus japonicus; Dosage 120 g a.i./ha) | Herbicidal activity (inhibition rate class), Leptochloa chinensis (Leptochloa chinensis; Dosage 120 g a.i./ha)
1 | C=C[C@]1(C(=O)N[C@H]2C[C@@H](C(=O)OCC(F)(F)F)C2)CC(c2cc(F)cc(F)c2)=NO1 [I-15] | A (A indicates that the inhibition rate was greater than or equal to 80% to 100%) | 80 to 100% | 60 to 80% | A (A indicates that the inhibition rate was greater than or equal to 80% to 100%) | A (A indicates that the inhibition rate was greater than or equal to 80% to 100%) | A (A indicates that the inhibition rate was greater than or equal to 80% to 100%) | A (A indicates that the inhibition rate was greater than or equal to 80% to 100%) |  |  |  |  |  |  |  |  |  |  |  |  | 
2 | CC[C@@H](C)OC(=O)[C@H]1C[C@@H](NC(=O)[C@@]2(C)CC(c3cc(F)cc(F)c3)=NO2)C1 [I-128] | A (A indicates that the inhibition rate was greater than or equal to 80% to 100%) | 80 to 100% | 60 to 80% | A (A indicates that the inhibition rate was greater than or equal to 80% to 100%) | A (A indicates that the inhibition rate was greater than or equal to 80% to 100%) | A (A indicates that the inhibition rate was greater than or equal to 80% to 100%) | A (A indicates that the inhibition rate was greater than or equal to 80% to 100%) |  |  |  |  |  |  |  |  |  |  |  |  | 
3 | CC[C@H](C)OC(=O)[C@H]1C[C@@H](NC(=O)[C@@]2(C)CC(c3cc(F)cc(F)c3)=NO2)C1 [I-129] | A (A indicates that the inhibition rate was greater than or equal to 80% to 100%) | 80 to 100% | 60 to 80% | A (A indicates that the inhibition rate was greater than or equal to 80% to 100%) | A (A indicates that the inhibition rate was greater than or equal to 80% to 100%) | A (A indicates that the inhibition rate was greater than or equal to 80% to 100%) | B (B indicates that the inhibition rate was greater than or equal to 60% to less than 80%) |  |  |  |  |  |  |  |  |  |  |  |  | 
4 | COC(=O)C1CC(NC(=O)C2(C)CC(c3cc(F)cc(OC(F)F)c3)=NO2)CO1 (stereo not drawn) [I-385] |  |  |  |  |  |  |  | B (B indicates that the inhibition rate was greater than or equal to 60% to less than 80%) | 80 to 100% | 60 to 80% | A (A indicates that the inhibition rate was greater than or equal to 80% to 100%) | A (A indicates that the inhibition rate was greater than or equal to 80% to 100%) | A (A indicates that the inhibition rate was greater than or equal to 80% to 100%) |  |  |  |  |  |  | 
5 | C=C[C@]1(C(=O)N[C@H]2C=C[C@@H](C(=O)O)C2)CC(c2cc(F)cc(C(F)(F)F)c2)=NO1 [I-426] | A (A indicates that the inhibition rate was greater than or equal to 80% to 100%) |  | 80 to 100% | A (A indicates that the inhibition rate was greater than or equal to 80% to 100%) | A (A indicates that the inhibition rate was greater than or equal to 80% to 100%) | A (A indicates that the inhibition rate was greater than or equal to 80% to 100%) | A (A indicates that the inhibition rate was greater than or equal to 80% to 100%) |  |  |  |  |  |  | 60 to 80% | 80 to 100% |  |  |  |  | 
6 | C=C[C@]1(C(=O)N[C@H]2C=C[C@@H](C(=O)OC)C2)CC(c2cc(F)cc(C(F)(F)F)c2)=NO1 [I-428] | A (A indicates that the inhibition rate was greater than or equal to 80% to 100%) |  | 80 to 100% | A (A indicates that the inhibition rate was greater than or equal to 80% to 100%) | A (A indicates that the inhibition rate was greater than or equal to 80% to 100%) | A (A indicates that the inhibition rate was greater than or equal to 80% to 100%) | A (A indicates that the inhibition rate was greater than or equal to 80% to 100%) |  |  |  |  |  |  | 60 to 80% | 80 to 100% |  |  |  |  | 
7 | C=C[C@]1(C(=O)N[C@H]2C=C[C@@H](C(=O)OCCCOC)C2)CC(c2cc(F)cc(C(F)(F)F)c2)=NO1 [I-436] | B (B indicates that the inhibition rate was greater than or equal to 60% to less than 80%) |  | 80 to 100% | A (A indicates that the inhibition rate was greater than or equal to 80% to 100%) | A (A indicates that the inhibition rate was greater than or equal to 80% to 100%) | A (A indicates that the inhibition rate was greater than or equal to 80% to 100%) | A (A indicates that the inhibition rate was greater than or equal to 80% to 100%) |  |  |  |  |  |  | 60 to 80% | 60 to 80% |  |  |  |  | 
8 | C=C[C@]1(C(=O)N[C@H]2C=C[C@@H](C(=O)OCCC)C2)CC(c2cc(F)cc(C(F)(F)F)c2)=NO1 [I-437] | A (A indicates that the inhibition rate was greater than or equal to 80% to 100%) |  | 80 to 100% | A (A indicates that the inhibition rate was greater than or equal to 80% to 100%) | A (A indicates that the inhibition rate was greater than or equal to 80% to 100%) | A (A indicates that the inhibition rate was greater than or equal to 80% to 100%) | A (A indicates that the inhibition rate was greater than or equal to 80% to 100%) |  |  |  |  |  |  | 60 to 80% | 80 to 100% |  |  |  |  | 
9 | C=C[C@]1(C(=O)N[C@H]2C=C[C@@H](C(=O)O[C@H](C)COC)C2)CC(c2cc(F)cc(OC(F)(F)F)c2)=NO1 [I-459] |  |  | 60 to 80% |  |  |  |  |  |  |  |  |  |  | 60 to 80% | 60 to 80% | A (A indicates that the inhibition rate was greater than or equal to 80% to 100%) | A (A indicates that the inhibition rate was greater than or equal to 80% to 100%) | A (A indicates that the inhibition rate was greater than or equal to 80% to 100%) | A (A indicates that the inhibition rate was greater than or equal to 80% to 100%) | A (A indicates that the inhibition rate was greater than or equal to 80% to 100%)
10 | O=C(OCC1CCCC1)[C@@H]1C=C[C@H](NC(=O)[C@@]2(C(F)(F)F)CC(c3cc(F)cc(C(F)(F)F)c3)=NO2)C1 [I-519] |  |  | 80 to 100% |  |  |  |  |  |  |  |  |  |  | 80 to 100% | 80 to 100% | A (A indicates that the inhibition rate was greater than or equal to 80% to 100%) | A (A indicates that the inhibition rate was greater than or equal to 80% to 100%) | A (A indicates that the inhibition rate was greater than or equal to 80% to 100%) | A (A indicates that the inhibition rate was greater than or equal to 80% to 100%) | A (A indicates that the inhibition rate was greater than or equal to 80% to 100%)
